From patent publication US6737431B2 (Bristol-Myers Squibb Company, priority 2002, dated 2004)
pIC50: −log10 of the molar value.

Experiments:
melatonin ML1a receptor = target: T1, melatonin ML1a receptor (Homo sapiens, UniProt P48039); assay: Melatonergic receptor binding, 2-[125I]-iodomelatonin, ML1a; settings: NIH-3T3 membranes, 0.1 nM 2-[125I]-iodomelatonin, 37° C. 1 hour
T1 construct: expressed in transfected cells; membrane homogenates
Method: (§1) Melatonergic Receptor Binding Activity
(§2) (a) TME=50 mM Tris buffer containing 12.5 mM MgCl2, and 2 mM EDTA, pH 7.4 at 37° C., with concentrated HCl.
(§3) (b) Wash buffer: 20 mM Tris base containing 2 mM MgCl2, pH 7.4 at room temperature.
(§4) (c) 10^−4 M melatonin (10^−5 M final concentration).
(d) 2-[^125I]-iodomelatonin ML1a, 0.1 nM final concentration.
(§5) 2. Membrane Homogenates: The melatonin ML1a and ML1b receptors cDNA were individually subcloned into pcDNA3 and introduced into NIH-3T3 cells using Lipofectamine. Transformed NIH-3T3 cells resistant to geneticin (G-418) were isolated, and single colonies expressing high levels of 2[^125I]-iodomelatonin binding were isolated. Cells are maintained in DMEM supplemented with 10% calf serum and G-418 (0.5 g/liter). Cells are grown to confluency in T-175 flasks, scraped using Hank's balanced salt solution, and frozen at −80° C. For preparing membrane homogenates, pellets are thawed on ice, and re-suspended in TME buffer in the presence of 10 μg/ml aprotinin and leupeptin, and 100 μM phenylmethylsulfonylfluoride. The cells were then homogenized using a dounce homogenizer, and centrifuged. The resulting pellet was re-suspended with dounce homogenizer in TME (supplemented with the above protease inhibitors) and frozen. On the day of assay, a small aliquot was thawed on ice and re-suspended in the ice cold TME (1:50-1:100 v/v) and held on ice until assayed.
(§6) 3. Incubation: 37° C. for 1 hour. Reaction is terminated by filtration. Filters were washed 3 times.
(§7) 4. References: Reppert, S. M. et al., Neuron, 13, p. 1177-1185 (1994); and Reppert, S. M. et al., Proc. Natl. Acad. Sci. USA, 92, p. 8734-8738 (1995).
(§8) The compounds of the present invention have affinity for receptors of the endogenous pineal hormone, melatonin, as determined in receptor binding assays described above in Tables I to III for the ML1a and ML1b (human) receptors. Melatonin is involved in the regulation of a variety of biological rhythms and exerts its biological effects via interaction with specific receptors. There is evidence that administration of melatonin agonists are of clinical utility in the treatment of various conditions regulated by melatonin activity. Such conditions include depression, jet-lag, work-shift syndrome, sleep disorders, glaucoma, some disorders associated with reproduction, cancer benign prostatic hyperplasia, immune disorders, and neuroendocrine disorders.

melatonin ML1b receptor = target: T2, melatonin ML1b receptor (Homo sapiens, UniProt P49286); assay: Melatonergic receptor binding, 2-[125I]-iodomelatonin, ML1b; settings: NIH-3T3 membranes, 0.2 nM 2-[125I]-iodomelatonin, 37° C. 1 hour
T2 construct: expressed in transfected cells; membrane homogenates
T2 sequence (P49286 1-362): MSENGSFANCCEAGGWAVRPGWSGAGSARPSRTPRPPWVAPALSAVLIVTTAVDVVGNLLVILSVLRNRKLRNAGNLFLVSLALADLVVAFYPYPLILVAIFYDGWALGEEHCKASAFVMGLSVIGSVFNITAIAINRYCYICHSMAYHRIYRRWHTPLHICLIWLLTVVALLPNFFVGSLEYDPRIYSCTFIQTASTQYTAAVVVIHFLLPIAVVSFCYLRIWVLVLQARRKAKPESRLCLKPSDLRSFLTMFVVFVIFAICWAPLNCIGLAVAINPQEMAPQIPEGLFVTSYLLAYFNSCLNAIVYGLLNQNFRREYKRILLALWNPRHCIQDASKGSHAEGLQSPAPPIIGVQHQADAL
Method: as §1, §2, §3, §4
(e) 2-[^125I]-iodomelatonin ML1b, 0.2 nM final concentration.
as §5, §6, §7, §8

T1 sequence (P48039 whole entry): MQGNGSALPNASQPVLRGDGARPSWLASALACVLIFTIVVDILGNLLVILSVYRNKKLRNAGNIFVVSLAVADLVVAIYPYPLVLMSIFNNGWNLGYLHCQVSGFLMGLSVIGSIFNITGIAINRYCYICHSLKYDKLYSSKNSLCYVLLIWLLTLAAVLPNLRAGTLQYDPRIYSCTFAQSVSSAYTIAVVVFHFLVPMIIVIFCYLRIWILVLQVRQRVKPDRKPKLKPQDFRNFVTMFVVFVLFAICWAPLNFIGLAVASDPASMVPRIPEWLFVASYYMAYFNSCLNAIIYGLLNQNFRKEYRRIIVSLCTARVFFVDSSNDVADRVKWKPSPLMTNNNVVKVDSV

SMILES	pIC50 (melatonin ML1a receptor; Table I)	pIC50 (melatonin ML1b receptor; Table I)	pIC50 (melatonin ML1a receptor; Table II)	pIC50 (melatonin ML1b receptor; Table II)
CCNC(=O)NCCCc1cccc2nc(C(C)C)oc12 [Example 39, (Ethylamino)-N-{3-[2-(methylethyl)benzoxazol-7-yl]propyl}carboxamide]	< 6.60	6.60 to 8.00		
CCc1nc2cc(Br)cc(CCCNC(=O)OC(C)(C)C)c2o1 [Example 40]			6.60 to 8.00	< 6.60
C=Cc1ccc2nc(CC)oc2c1CCCNC(=O)OC(C)(C)C [Example 41, N-t-Butoxycarbonyl 7-(3-aminopropyl)-6-vinyl-2-ethylbenzoxazole]			< 6.60	< 6.60
C=Cc1ccc2nc(CC)oc2c1CCCNC(C)=O [Example 43, N-Acetyl-7-(3-aminopropyl)-6-vinyl-2-ethylbenzoxazole]			6.60 to 8.00	> 8.00
CCc1nc2ccc(C)c(CCCNC(C)=O)c2o1 [Example 44, N-[3-(2-Ethyl-6-methylbenzoxazol-7-yl)propyl]acetamide]			6.60 to 8.00	6.60 to 8.00
CCc1nc2ccc(C)c(CCCNC(=O)c3ccccc3)c2o1 [Example 45, N-[3-(2-Ethyl-6-methylbenzoxazol-7-yl)propyl]benzamide]			6.60 to 8.00	6.60 to 8.00
CCc1nc2ccc(-c3ccc(F)cc3)c(CCCNC(C)=O)c2o1 [Example 47, N-{3-[2-Ethyl-6-(4-fluorophenyl)benzoxazol-7-yl]propyl}acetamide]			6.60 to 8.00	> 8.00
CCc1nc2ccc(-c3ccc(F)cc3)c(CCCNC(=O)c3ccccc3)c2o1 [Example 48, N-{3-[2-Ethyl-6-(4-fluorophenyl)benzoxazol-7-yl]propyl}benzamide]			< 6.60	6.60 to 8.00
CCc1nc2ccc(-c3ccc(C(F)(F)F)cc3)c(CCCNC(C)=O)c2o1 [Example 50, N-(3-{2-Ethyl-6-[4-(trifluoromethyl)phenyl]benzoxazol-7-yl}propyl)acetamide]			< 6.60	6.60 to 8.00
CCc1nc2ccc(-c3ccc(C(F)(F)F)cc3)c(CCCNC(=O)C3CC3)c2o1 [Example 51, Cyclopropyl-N-(3-{2-ethyl-6-[4-(trifluoromethyl)phenyl]benzoxazol-7-yl}propyl)carboxamide]			< 6.60	6.60 to 8.00
CCc1nc2ccc(-c3ccc(OC)cc3)c(CCCNC(C)=O)c2o1 [Example 52, N-{3-[2-Ethyl-6-(4-methoxyphenyl)benzoxazol-7-yl]propyl}acetamide]			6.60 to 8.00	> 8.00
CCc1nc2ccc(-c3ccc(OC)cc3)c(CCCNC(=O)c3ccccc3)c2o1 [Example 53, N-{3-[2-Ethyl-6-(4-methoxyphenyl)benzoxazol-7-yl]propyl}benzamide]			< 6.60	< 6.60
CCc1nc2ccc(-c3ccccc3)c(CCCNC(C)=O)c2o1 [Example 55, N-[3-(2-Ethyl-6-phenylbenzoxazol-7-yl)propyl]acetamide]			> 8.00	> 8.00
CCc1nc2ccc(-c3ccccc3)c(CCCNC(=O)c3ccccc3)c2o1 [Example 56, N-[3-(2-Ethyl-6-phenylbenzoxazol-7-yl)propyl]benzamide]			6.60 to 8.00	6.60 to 8.00
CCc1nc2cc(-c3ccc(F)cc3)cc(CCCNC(C)=O)c2o1 [Example 58, N-[3-(2-Ethyl-5-(4-fluorophenyl)benzoxazol-7-yl)propyl]acetamide]			6.60 to 8.00	6.60 to 8.00
CCc1nc2cc(-c3ccc(F)cc3)cc(CCCNC(=O)c3ccccc3)c2o1 [Example 59, N-{3-[2-Ethyl-5-(4-fluorophenyl)benzoxazol-7-yl]propyl}benzamide]			< 6.60	< 6.60
CCc1nc2cc(-c3ccc(C(F)(F)F)cc3)cc(CCCNC(=O)c3ccccc3)c2o1 [Example 61, N-(3-{2-Ethyl-5-[4-(trifluoromethyl)phenyl]benzoxazol-7-yl}propyl)benzamide]			6.60 to 8.00	< 6.60
CCc1nc2cc(-c3ccc(OC)cc3)cc(CCCNC(C)=O)c2o1 [Example 62, N-{3-[2-Ethyl-5-(4-methoxyphenyl)benzoxazol-7-yl]propyl}acetamide]			6.60 to 8.00	6.60 to 8.00
CCc1nc2cc(-c3ccc(OC)cc3)cc(CCCNC(=O)c3ccccc3)c2o1 [Example 63, N-{3-[2-Ethyl-5-(4-methoxyphenyl)benzoxazol-7-yl]propyl}benzamide]			6.60 to 8.00	< 6.60
CCc1nc2cc(-c3ccccc3)cc(CCCNC(C)=O)c2o1 [Example 65, N-[3-(2-Ethyl-5-phenylbenzoxazol-7-yl)propyl]acetamide]			< 6.60	6.60 to 8.00
CCc1nc2cc(-c3ccccc3)cc(CCCNC(=O)c3ccccc3)c2o1 [Example 66, N-[3-(2-Ethyl-5-phenylbenzoxazol-7-yl)propyl]benzamide]			< 6.60	< 6.60

Results, then the compound that gave them:

pIC50 (melatonin ML1a receptor; Table I)	pIC50 (melatonin ML1b receptor; Table I)	pIC50 (melatonin ML1a receptor; Table II)	pIC50 (melatonin ML1b receptor; Table II)	SMILES
6.60 to 8.00	< 6.60			CC(C)c1nc2cccc(CCCNC(=O)C3CC3)c2o1 [Example 38, Cyclopropyl-N-{3-[2-(methylethyl)benzoxazol-7-yl]propyl}carboxamide]
		6.60 to 8.00	> 8.00	CCc1nc2ccc(Br)c(CCCNC(C)=O)c2o1 [Example 42, N-Acetyl-7-(3-aminopropyl)-6-bromo-2-ethylbenzoxazole]
		> 8.00	> 8.00	CCc1nc2ccc(C)c(CCCNC(=O)C3CC3)c2o1 [Example 46, Cyclopropyl-N-[3-(2-ethyl-6-methylbenzoxazol-7-yl)propyl]carboxamide]
		6.60 to 8.00	> 8.00	CCc1nc2ccc(-c3ccc(F)cc3)c(CCCNC(=O)C3CC3)c2o1 [Example 49, Cyclopropyl-N-{3-[2-ethyl-6-(4-fluorophenyl)benzoxazol-7-yl]propyl}carboxamide]
		< 6.60	6.60 to 8.00	CCc1nc2ccc(-c3ccc(OC)cc3)c(CCCNC(=O)C3CC3)c2o1 [Example 54, Cyclopropyl-N-{3-[2-ethyl-6-(4-methoxyphenyl)benzoxazol-7-yl]propyl}carboxamide]
		6.60 to 8.00	> 8.00	CCc1nc2ccc(-c3ccccc3)c(CCCNC(=O)C3CC3)c2o1 [Example 57, Cyclopropyl-N-[3-(2-ethyl-6-phenylbenzoxazol-7-yl)propyl]carboxamide]
		6.60 to 8.00	6.60 to 8.00	CCc1nc2cc(-c3ccc(F)cc3)cc(CCCNC(=O)C3CC3)c2o1 [Example 60, Cyclopropyl-N-{3-[2-ethyl-5-(4-fluorophenyl)benzoxazol-7-yl]propyl}carboxamide]
		< 6.60	< 6.60	CCc1nc2cc(-c3ccc(OC)cc3)cc(CCCNC(=O)C3CC3)c2o1 [Example 64, Cyclopropyl-N-{3-[2-ethyl-5-(4-methoxyphenyl)benzoxazol-7-yl]propyl}carboxamide]
		6.60 to 8.00	< 6.60	CCc1nc2cc(-c3ccccc3)cc(CCCNC(=O)C3CC3)c2o1 [Example 67, Cyclopropyl-N-[3-(2-ethyl-5-phenylbenzoxazol-7-yl)propyl]carboxamide]
		< 6.60	6.60 to 8.00	CCc1nc2cc(Br)cc(CCCNC(C)=O)c2o1 [Example 68, N-[3-(5-Bromo-2-ethylbenzoxazol-7-yl)propyl]acetamide]
		< 6.60	< 6.60	CCc1nc2cc(Br)cc(CCCNC(=O)c3ccccc3)c2o1 [Example 69, N-[3-(5-Bromo-2-ethylbenzoxazol-7-yl)propyl]benzamide]
		< 6.60	6.60 to 8.00	CCc1nc2cc(Br)cc(CCCNC(=O)C3CC3)c2o1 [Example 70, N-[3-(5-Bromo-2-ethylbenzoxazol-7-yl)propyl]cyclopropylcarboxamide]
